One assay deals with REF52 cells. Nature of the assay: MEKK-induced apoptosis, microinjected REF52 cells. It counts as cell-based. The method, then: (§1) Cells were prepared for the apoptosis studies as follows. Swiss 3T3 cells and REF52 cells were transfected with an expression plasmid encoding β-Galactoctosidase (β-Gal) detection of injected cells. One set of β-Gal transfected cells were then microinjected with an expression vector encoding MEKK1 370-738 protein. Another set of β-Gal transfected cells were then microinjected with an expression vector encoding truncated BXB-Raf protein.
(§2) A first group of transfected Swiss 3T3 cells and REF52 cells were treated with 50 μM beauvericin for 6 hours at 37° C. Beauvericin is a compound known to induce apoptosis in mammalian cells. A second group of cells were treated with a control buffer lacking beauvericin. The treated cells were then fixed in parafornaldehyde and permeabilized with saponin using protocols standard in the art. The permeabilized cells were then labelled by incubating the cells with a fluorescein-labelled anti-tubulin antibody (1:500; obtained from GIBCO, Gaithersburg, Md.) to detect cytoplasmic shrinkage or 10 μM propidium iodide (obtained from Sigma, St. Louis, Mo.) to stain DNA to detect nuclear condensation. The labelled cells were then viewed by differential fluorescent imaging using a Nikon Diaphot fluorescent microscope. […]

A further assay relates to Swiss 3T3 cells. Nature of the assay: MEKK-induced apoptosis, microinjected Swiss 3T3 cells. Format: cell-based. The procedure: as §1, §2
The next assay deals with HEK293 cells. Nature of the assay: MEKK1 staining and TdT-mediated dUTP incorporation (DNA fragmentation) in transfected cells. As to conditions: after 48 hr. Format: cell-based, Human. The procedure: Human embryonal kidney 293 cells (HEK293) stably expressing the EBNA-1 protein from Epstein-Barr virus (Invitrogen) were grown in Dulbecco's modified Eagle's medium (DMEM) supplemented with 100 U/ml penicillin/streptomycin and containing 10% bovine calf serum (BCS). The cells were transfected using lipofectamine (Gibco).
Cells were grown on glass coverslips and transfected using lipofectamine. Two days after transfection, the medium was removed and the cells were fixed in 2% paraformaldehyde, 3% sucrose in phosphate buffered saline (PBS) for 10 min at room temperature. Following three washes with PBS, the cells were permeabilized for 10 min with 2% Triton-X100 in PBS. After three PBS washes, the cells were blocked with filtered cultured medium for 15 min. The coverslips were then incubated 1 hour in TdT reaction mix (200 mM potassium cacodylate, 25 mM Tris.HCl, pH 6.6, 250 μg/ml BSA, 5 mM CoCl2, 0.25 U/μl TdT [Boehringer], 10 μM biotin-dUTP [Boehringer]) at 37° C. in a humidifed atmosphere. […] Images were taken using a Leica DMRXA microscope and analyzed with the SlideBook v2.0 software (Intelligent Imaging Innovations, Denver). […]

The test system of the next assay is p38 kinase. Nature of the assay: p38 kinase activation, transfected HEK293 cells. Format: cell-based, Human. As to conditions: transfection in HEK293 cells.
In the next assay the test system is L929 fibroblasts. Nature of the assay: TNF and MEKK1COOH synergy, percentage of apoptotic cells (Lac Switch clones). It counts as cell-based, murine. As to conditions: control L929 cells (4.1 LAC1), presence and absence of IPTG. The text has this: Approximately 20% of control L929 cells became apoptotic upon TNF exposure either in the presence and absence of IPTG. In L929 cells expressing the MEKK1COOH domain, exposure to TNF and IPTG increased the percentage of apoptotic cells to 40%, approximately a 2-fold increase.

A further assay has as its system L929 cells. Nature of the assay: TNFα-mediated apoptosis of L929 cells (neutral red assay, propidium iodide staining). It counts as cell-based, murine. The method, then:
Cell lines and culture. L929 cells (ATCC CCL1 were maintained in Dulbecco's modified Eagle's medium with 5% newborn claf serum and 5% bovine calf serum (BCS) supplemented with 100 ug/ml streptomycin and 100U/ml penicillin. The cells were grown in 10 cm dishes at 37° C. in 7.5% CO2. Cells were made quiescent where indicated by incubation in Dulbecco's modified Eagle's medium and 0.1% bovine serum albumin for 24 h. Recombinant murine TNFα and recombinant humanbFGF (147aa) were from R&D Systems, Minneapolis, Minn. Cells were pretreated where indicated with the MEK-1 inhibitor PD#098059 (Parke-Davis Pharmaceutical Corp. Ann Arbor, Mich.) for 1 h at 37° C. Cells were stimulated by incubation with the indicated cytokine or growth factor for various times at 37° C. […] Stimulation was stopped by rinsing the plates twice with ice cold phosphate buffered saline (PBS) and lysing the cells in the appropriate lysis buffer. Cells were scraped from the plates and nuclei were pelleted for 10 min at 14,000 RPM in a microcentrifuge.
Neutral Red Assay Uptake of the dye neutral red was used as one measure of cell viability following cytokine or growth factor treatment (Finter, N. B. (1969) J. Gen Virol. 5:419-427). 1.5×10^4-2.5×10^5 L929 cells/well were plated in 12 well tissue culture dishes in 1.25 ml of media. Cells were treated for 15-20 hr with various concentrations of TNFα and/or bFGF. 2.5 μl of 1% neutral red was added to the wells and incubated for 2 hr at 37° C. PBS. The neutral red was extracted with 1.0 ml of 50% ethanol, 50 mM Na-citrate pH 4.2 and absorbency was measured at […].
Propidium iodide staining Cells were plated on glass chamber slides (Nunc, Naperville, Ill.) at a concentration of 0.2-0.6×10^5 cells/ml. Ras expression was induced with 5 mM IPTG in Dulbecco's modified Eagle's medium with 0.1% BCS for 8-12 hr. Cells were exposed to TNFα (5 ng/ml) and/or bFGF (500 pg/ml) in Dulbecco's modified Eagle's medium with 0.1% BCS for 16 hr. The parental LACI expressing cell line (see below) was used as a control. Cells were washed twice in PBS, fixed in acetone:methanol (1:1) −20° C. for 5 min, air dried, washed twice in PBS, stained with 1 μg/ml propidium iodide (PI) in PBS for 20 min, washed in PBS, washed in H2O and mounted in 25% glycerol/PBS. PI fluorescence was observed using a Nikon inverted microscope equipped with epifluorescence and a […] filter. Images were analyzed using IP lab.

The next assay has as its system JNK. Nature of the assay: JNK assay (solid state kinase assay with GST-Jun), L929 cells. It counts as cell-based, murine. The method, then:
JNK assay. JNK activity was measured using a solid state kinase assay in which glutathione S-transferase-c-Jun(1-79) (GST-JUN) cound to glutathione-Sepharose 4B beads was used to affinity pruify JNK and then JNK activity was measured in an in vitro kinase assay using the sepharose bound GST-Jun as a substrate (Hibi, M., et al. (1993) Genes & Development 7:2135-2148). Stimulated or unstimulated cells were lysed in 0.5% Nonidet P-40, 20 mM HEPES pH 7.2, 100 mM NaCl, 2 mM dithiothreitol, lmM EDTA, 1.0 mM phenylmethylsulfonylfluoride, 1 μg/ml aprotinin and the nuclei pelleted. Lysates were normalized for protein content. […] Binding to GST-Jun efficiently isolates the two major forms of JNK (p45and p55) and under the conditions used JNK isolation was linear for 10-250 μg of cell lysate. The lysates were rotated at 4° C. for 1-3 h. Beads were washed twice in lysis buffer and then twice in PAN (10 mM PIPES, pH 7.0, 100 mM NaCl, 21 μg/ml aprotinin). Kinase reactions were carried out at 30° C. for 15 min in 20 mM Hepes pH 7.2, 20 mM β-glycerophosphate, 10 mMp-nitrophenyl phosphate, 10 mM MgCl2, 1 mM dithiothreitol, 50 μm sodium vanadate, 10 μCi γ^32P-ATP 4300 Ci/mmole. The kinase reaction was linear from 0-30 min.

In another assay the test system is p42/p44 MAPK. Nature of the assay: MAPK assay (EGFR662-681 peptide), L929 cells. Format: cell-based, murine. The method, then: MAPK Assay MAPK activity was measured exactly as described previously (Gardner, A. M., et al. (1994) Meth. Enzymol. 238:258-270) with the exception that MonoQ FPLC fractionation was replaced by step elution from a DEAE-Sephacel column using 0.5 M NaCl in loading buffer. The eluate was assayed in triplicate using the epidermal growth factor receptor 662-681 peptide (EGFR662-681) as a selective substrate for MAPK activity (Heasley, L. E., et al. (1994) American Journal of Physiology (Renal Fluid Electrolyte Physiol. 36) 267:F366-F373).

Another assay concerns B-Raf. Nature of the assay: Raf activation assay (kinase-inactive MEK-1 phosphorylation), L929 cells. Format: cell-based, murine. The method, then:
(§3) RafActivation Assay Cells were serum starved and challenged in the presence or absence of the appropriate cytokine or growth factors, as described above. Cells were lysed by scraping in ice cold RIPA buffer (50 mM Tris-HCl, pH 7.2, 150 mM NaCl, 0.1% SDS, 0.5% sodium deoxycholate, 1.0% Triton X-100, 10 mM sodium pyrophosphate, 25 mM β-glycerophosphate, 2 mM sodium vanadate, 2.1 µg/ml aprotinin) and the nuclei were pelletted. The supernatants were normalized for protein content and precleared with protein A Sepharose prior to immunoprecipitation with rabbit antiserum to the C terminus of C-Raf, rabbit anti-serum to A-Raf or rabbit antiserum to B-Raf (Santa Cruz Biotech., Santa Cruz, Calif.) and protein A Sepharose for 2-3 hr at 4° C. The beads were washed twice with ice cold RIPA and twice with PAN. A third of the immunoprecipitate was diluted with SDS sample buffer and used for immunoblot analysis. […] Wild-type recombinant MEK-1 was autophosphorylated in parallel as a marker. Reactions were terminated by the addition of 12.5 μl 5× SDS sample buffer, boiled, and subjected to SDS-PAGE and autoradiography.

The subject of the next assay is C-Raf. Described as above. Format: cell-based, murine. The procedure:
as §3

On to “MEKK1 protein: MEKK1 370-738 protein expressed from a microinjected expression vector”, for which the “apoptotic morphology of expressing cells” value with REF52 cells is “underwent cytoplasmic shrinkage and nuclear condensation leading to apoptotic death”; with Swiss 3T3 cells, “underwent cytoplasmic shrinkage and nuclear condensation leading to apoptotic death”.
As for “MEKK1: full length 196 kDa mouse MEKK1, HA-tagged, expressed by transfection”, the MEKK1-expressing cells apoptotic entry with HEK293 cells was “about 30%”. Also, the p38 kinase activation result in the assay with p38 kinase is on record as “did not activate the p38 kinase”.
Consider TNFα, for which, in the assay with L929 fibroblasts, the “percentage of apoptotic cells” value is reported as “Approximately 20%”. Also, the “time required to induce a similar level of L929 cell death” value in the assay with L929 cells (1 ng/ml) was 24 to 48 h. The “L929 cells being apoptotic” value in the assay on L929 cells (10 ng/ml, 15 hr) is on record as “greater than 40%”. In the assay on JNK, the “concentration giving maximal JNK activation” value is 1 ng/mL and the “time of peak JNK activity” value fell in the range of 10 to 15 min. The JNK activation entry in the assay on JNK (0.1 ng/ml) is reported as “greater than four-fold”. Further, in the assay with p42/p44 MAPK, the “concentration required to stimulate p42/p44 MAPK 2-3 fold” value was “Greater than 10 ng/ml” and the “time to maximal stimulation of p42/p44 MAPK activity” value was 5 to 10 min. Also, in the assay with p42/p44 MAPK (1 ng/ml), the “MAPK activity stimulated above basal” value amounted to 20%. In addition, the “effect on bFGF stimulation of MAPK activity” value in the assay with p42/p44 MAPK (L929 cells) is “little or no effect on bFGF stimulation of MAPK activity”. For the same substance, the MAPK activity result with p42/p44 MAPK (L929 cells, TNFα 1 ng/ml where stated) was “only modest stimulatory effects”. Also, in the assay on B-Raf, the B-Raf activation result was “does not significantly activate”. For the same substance, the C-Raf activation result with C-Raf is “does not significantly activate”.

The values are drawn from US20020055130A1, “Method and product for regulating apoptosis” (National Jewish Center for Immunology and Respiratory …, priority 1997, published 2002).
